Converted amounts (≈) assume the structure as drawn.
Assays:
[1] = test system: ESBL positive E. coli strains; assay: Residual efficacy of antibiotic solution after overnight culture, re-tested by MDT; assay type: cell-based; details: Escherichia coli
Method: At each time point, the culture media were filtered to remove the cells and then added to different DST sets to measure the residual efficacies of the antibiotics. Both broth […] and DAC protocol were performed in the same manner as described above.
The present inventors hypothesized that the reason why the absence of inoculum effect in the DAC system may be because proteins released from bacteria are trapped by agarose and cannot degrade the antibiotic, unlike under broth culture conditions. […] These concentrations indicate the concentrations of the bacteria in […] for the DAC system and in liquid for the MDT system.
Thus, the final concentrations of the bacteria in the DAC and […] systems were the same. Cefepime was used in these tests. After culture overnight, the antibiotic solutions in the wells of the DAC and MDT systems was extracted and filtered to obtain the pure antibiotic. MDT using ESBL positive E. coli strains was conducted using the antibiotic.

[2] = test system: clinically obtained E. coli strain #5; assay: AST on the MDT system (broth microdilution) at various inoculum concentrations; assay type: cell-based; details: #5 strain
Method: (§1) The MIC of cefepime against E. coli was determined according to the standard CLSI guideline except for the concentration of bacteria. 16 h after culture at 37° C., broth microdilution wells were examined.
(§2) The first reason is that large inoculum amounts of antibiotic degrading proteins derived from bacteria may destroy antibiotics and result in an increase in MIC value. The other reason is that larger inoculum amounts of […] bacteria may decrease the number of antibiotic molecules relative to single cells of bacteria and result in an increase in MIC. To verify the reasons for the absence of inoculum effect in the DAC system, ESBL negative E. coli (ATCC 35218), ESBL positive E. coli (ATCC 25922), and clinically obtained E. coli strains, which are well known as a bacterial strain secreting antibiotic-degrading proteins, were tested at inoculum concentrations of 5×10^7, 5×10^6, and 5×10^5 CFU/ml. These concentrations indicate the concentrations of the bacteria in agarose for the DAC system and in liquid for the MDT system.

[3] = test system: ESBL positive E. coli (ATCC 25922); assay: as above; assay type: cell-based
Method: as §1, §2

[4] = test system: ESBL negative E. coli (ATCC 35218); assay: as above; assay type: cell-based
Method: as §1, §2

[5] = test system: clinically obtained E. coli strain #5; assay: AST on the DAC system at various inoculum concentrations; assay type: cell-based; details: #5 strain, unit inferred
Text: as §2

[6] = test system: ESBL positive E. coli (ATCC 25922); assay: as above; assay type: cell-based; details: unit inferred
Text: as §2

[7] = test system: ESBL negative E. coli (ATCC 35218); assay: as above; assay type: cell-based; details: unit inferred
Text: as §2

[8] = test system: XDR-TB clinical strain; assay: DST of MTB using the DAC system (MIC from time-lapse images); assay type: cell-based, Mycobacterium tuberculosis; details: for susceptibility determined from the MIC data and the critical concentrations: DAC system, XDR strain; for MIC: Mycobacterium tuberculosis, 120 h
[9] = test system: clinical strain KHS; assay: Inoculum effect on clinical strains on the DAC system; assay type: cell-based, Mycobacterium tuberculosis
Method: (§3) Mycobacterium tuberculosis identified by ZN staining and grown from an L-J slope or MGIT tube and was subjected to DST. For the preparation of inoculation from the LJ culture, colonies up to 14 days were extracted from the grown culture. The colonies were shaken with glass beads to crush large lumps. To obtain a high density (˜5×10^9 CFU/ml), the suspension was centrifuged at 3000 g for 10 min and pellets were resuspended in sterile PBS. Subsequently, the suspension was added to liquid agarose, inoculated in a bacteria-agarose mixture within the range of 10^1 to 5×10^8 CFU/ml, and loaded in the main channel After solidification, 7H9 broth containing each antibiotic was applied to the chamber. All bacterial cells were imaged with an inverted optical microscope (IS71, Olympus).
(§4) Clinical strains express various phenotypes, particularly, in drug susceptibility. […] Rifampicin, isoniazid, streptomycin, and ethambutol were used as test drugs. For the 131 strains, the highest concentration was 1.3×10^9.

[10] = test system: clinical strain MSH; assay: as above; assay type: cell-based, Mycobacterium tuberculosis
Method: as §3, §4

[11] = test system: clinical strain 131; assay: as above; assay type: cell-based, Mycobacterium tuberculosis
Method: as §3, §4

[12] = test system: clinical strain 1088; assay: as above; assay type: cell-based, Mycobacterium tuberculosis
Method: as §3, §4

[13] = test system: clinical strain CYD; assay: as above; assay type: cell-based, Mycobacterium tuberculosis
Method: as §3, §4

[14] = test system: clinical strain CMS; assay: as above; assay type: cell-based, Mycobacterium tuberculosis
Method: as §3, §4

[15] = test system: standard strain H37Rv; assay: Inoculum effect test, DST on the DAC system; assay type: cell-based, Mycobacterium tuberculosis
[16] = test system: MDR-TB clinical strain; assay: DST of MTB using the DAC system (MIC from time-lapse images); assay type: cell-based, Mycobacterium tuberculosis; details: for susceptibility determined from the MIC data and the critical concentrations: DAC system, MDR strain; for MIC: Mycobacterium tuberculosis, 120 h
[17] = test system: M. tuberculosis H37Rv; assay: as above; assay type: cell-based, Mycobacterium tuberculosis; details: for MIC: Mycobacterium tuberculosis, 120 h, images over 5 days
[18] = inoculum 5*10^5 CFU/ml in liquid, unit not given
[19] = inoculum 5*10^6 CFU/ml in liquid, unit inferred
[20] = inoculum 5*10^7 CFU/ml in liquid, unit inferred
[21] = inoculum 5*10^5 CFU/ml in agarose
[22] = inoculum 5*10^6 CFU/ml in agarose
[23] = inoculum 5*10^7 CFU/ml in agarose
[24] = inoculum 10^4/mL, DAC, unit inferred
[25] = inoculum 10^5/mL, DAC, unit inferred
[26] = inoculum 10^6/mL, MAC2, unit inferred
[27] = inoculum 10^7/mL, MAC2, unit inferred
[28] = inoculum 10^3/mL, DAC, unit inferred

CO/N=C(\C(=O)N[C@@H]1C(=O)N2C(C(=O)[O-])=C(C[N+]3(C)CCCC3)CS[C@H]12)c1csc(N)n1 [Cefepime]
MIC ([1]; antibiotic solution recovered from DAC wells after overnight culture with 5*10^5 CFU/ml ESBL positive E. coli): 0.06 µg/mL (≈ 0.125 µM)
MIC ([1]; antibiotic solution recovered from DAC wells after overnight culture with 5*10^6 CFU/ml ESBL positive E. coli): 0.06 µg/mL (≈ 0.125 µM)
MIC ([1]; antibiotic solution recovered from DAC wells after overnight culture with 5*10^7 CFU/ml ESBL positive E. coli): 0.06 µg/mL (≈ 0.125 µM)
MIC ([1]; antibiotic solution recovered from MDT wells after overnight culture with 5*10^5 CFU/ml ESBL positive E. coli): 0.03 µg/mL (≈ 0.0624 µM)
MIC ([1]; antibiotic solution recovered from MDT wells after overnight culture with 5*10^6 CFU/ml ESBL positive E. coli): 0.125 µg/mL (≈ 0.26 µM)
MIC ([1]; antibiotic solution recovered from MDT wells after overnight culture with 5*10^7 CFU/ml ESBL positive E. coli): 0.25 µg/mL (≈ 0.52 µM)
MIC (AST result, MDT) [2, 18]: All growth
MIC (AST result, MDT) [2, 19]: 64 µg/mL (≈ 133 µM)
MIC (AST result, MDT) [2, 20]: 16 µg/mL (≈ 33.3 µM)
MIC (AST result, MDT) [3, 18]: All growth
MIC (AST result, MDT) [3, 19]: 4 µg/mL (≈ 8.32 µM)
MIC (AST result, MDT) [3, 20]: 0.03 µg/mL (≈ 0.0624 µM)
MIC (AST result, MDT) [4, 18]: All growth
MIC (AST result, MDT) [4, 19]: 0.03 µg/mL (≈ 0.0624 µM)
MIC (AST result, MDT) [4, 20]: 0.03 µg/mL (≈ 0.0624 µM)
MIC (AST result, DAC) [5, 21]: < 16 µg/mL
MIC (AST result, DAC) [5, 22]: < 16 µg/mL
MIC (AST result, DAC) [5, 23]: < 16 µg/mL
MIC (AST result, DAC) [6, 21]: 0.03 µg/mL (≈ 0.0624 µM)
MIC (AST result, DAC) [6, 22]: 0.03 µg/mL (≈ 0.0624 µM)
MIC (AST result, DAC) [6, 23]: 0.03 µg/mL (≈ 0.0624 µM)
MIC (AST result, DAC) [7, 21]: 0.06 µg/mL (≈ 0.125 µM)
MIC (AST result, DAC) [7, 22]: 0.06 µg/mL (≈ 0.125 µM)
MIC (AST result, DAC) [7, 23]: 0.06 µg/mL (≈ 0.125 µM)

CC[C@@H](CO)NCCN[C@@H](CC)CO [EMB, ethambutol]
susceptibility determined from the MIC data and the critical concentrations [8]: R
MIC [8]: 10 µg/mL (≈ 48.9 µM)
MIC (DAC) [9, 24]: 2.5 µg/mL (≈ 12.2 µM)
MIC (DAC) [9, 25]: 1.25 µg/mL (≈ 6.12 µM)
MIC (DAC) [9, 26]: 2.5 µg/mL (≈ 12.2 µM)
MIC (DAC) [9, 27]: 2.5 µg/mL (≈ 12.2 µM)
MIC (DAC) [10, 24]: 1.25 µg/mL (≈ 6.12 µM)
MIC (DAC) [10, 25]: 2.5 µg/mL (≈ 12.2 µM)
MIC (DAC) [10, 26]: 2.5 µg/mL (≈ 12.2 µM)
MIC (DAC) [10, 27]: 1.25 µg/mL (≈ 6.12 µM)
MIC (DAC) [11, 28]: > 10 µg/mL
MIC (DAC) [11, 24]: > 10 µg/mL
MIC (DAC) [11, 25]: > 10 µg/mL
MIC (DAC) [11, 26]: > 10 µg/mL
MIC (DAC) [11, 27]: > 10 µg/mL
MIC (DAC) [12, 28]: 10 µg/mL (≈ 48.9 µM)
MIC (DAC) [12, 24]: 10 µg/mL (≈ 48.9 µM)
MIC (DAC) [12, 25]: 10 µg/mL (≈ 48.9 µM)
MIC (DAC) [12, 26]: ≥ 10 µg/mL
MIC (DAC) [12, 27]: ≥ 10 µg/mL
MIC (DAC) [13, 24]: 2.5 µg/mL (≈ 12.2 µM)
MIC (DAC) [13, 25]: 2.5 µg/mL (≈ 12.2 µM)
MIC (DAC) [13, 26]: 2.5 µg/mL (≈ 12.2 µM)
MIC (DAC) [13, 27]: 5 µg/mL (≈ 24.5 µM)
MIC (DAC) [14, 24]: 1.25 µg/mL (≈ 6.12 µM)
MIC (DAC) [14, 25]: 1.25 µg/mL (≈ 6.12 µM)
MIC (DAC) [14, 26]: 2.5 µg/mL (≈ 12.2 µM)
MIC (DAC) [14, 27]: 2.5 µg/mL (≈ 12.2 µM)
MIC (DAC) [15, 28]: 2.5 µg/mL (≈ 12.2 µM)
MIC (DAC) [15, 24]: 1.25 µg/mL (≈ 6.12 µM)
MIC (DAC) [15, 25]: 1.25 µg/mL (≈ 6.12 µM)
MIC (DAC) [15, 26]: 2.5 µg/mL (≈ 12.2 µM)
MIC (DAC) [15, 27]: 2.5 µg/mL (≈ 12.2 µM)
susceptibility determined from the MIC data and the critical concentrations [16]: R
MIC [16]: > 10 µg/mL
susceptibility determined from the MIC data and the critical concentrations [17]: S
MIC [17]: 5 µg/mL (≈ 24.5 µM)
susceptibility of the strain (in words) ([17]; from the MIC data): sensitive

CO[C@H]1/C=C/O[C@@]2(C)Oc3c(C)c(O)c4c(O)c(c(/C=N/N5CCN(C)CC5)c(O)c4c3C2=O)NC(=O)/C(C)=C\C=C\[C@H](C)[C@H](O)[C@@H](C)[C@@H](O)[C@@H](C)[C@H](OC(C)=O)[C@@H]1C [RFP, rifampicin]
susceptibility determined from the MIC data and the critical concentrations [8]: R
MIC [8]: > 2 µg/mL
MIC (DAC) [9, 24]: 0.25 µg/mL (≈ 0.304 µM)
MIC (DAC) [9, 25]: 0.25 µg/mL (≈ 0.304 µM)
MIC (DAC) [9, 26]: 0.25 µg/mL (≈ 0.304 µM)
MIC (DAC) [9, 27]: 0.5 µg/mL (≈ 0.608 µM)
MIC (DAC) [10, 24]: 0.25 µg/mL (≈ 0.304 µM)
MIC (DAC) [10, 25]: 0.25 µg/mL (≈ 0.304 µM)
MIC (DAC) [10, 26]: 0.25 µg/mL (≈ 0.304 µM)
MIC (DAC) [10, 27]: 0.5 µg/mL (≈ 0.608 µM)
MIC (DAC) [11, 28]: > 2 µg/mL
MIC (DAC) [11, 24]: > 2 µg/mL
MIC (DAC) [11, 25]: > 2 µg/mL
MIC (DAC) [11, 26]: > 2 µg/mL
MIC (DAC) [11, 27]: > 2 µg/mL
MIC (DAC) [12, 28]: ≥ 2 µg/mL
MIC (DAC) [12, 24]: ≥ 2 µg/mL
MIC (DAC) [12, 25]: ≥ 2 µg/mL
MIC (DAC) [12, 26]: ≥ 2 µg/mL
MIC (DAC) [12, 27]: ≥ 2 µg/mL
MIC (DAC) [13, 24]: 0.25 µg/mL (≈ 0.304 µM)
MIC (DAC) [13, 25]: 0.25 µg/mL (≈ 0.304 µM)
MIC (DAC) [13, 26]: 0.25 µg/mL (≈ 0.304 µM)
MIC (DAC) [13, 27]: 0.5 µg/mL (≈ 0.608 µM)
MIC (DAC) [14, 24]: 0.25 µg/mL (≈ 0.304 µM)
MIC (DAC) [14, 25]: 0.25 µg/mL (≈ 0.304 µM)
MIC (DAC) [14, 26]: 0.5 µg/mL (≈ 0.608 µM)
MIC (DAC) [14, 27]: 0.5 µg/mL (≈ 0.608 µM)
MIC (DAC) [15, 28]: 0.5 µg/mL (≈ 0.608 µM)
MIC (DAC) [15, 24]: 0.5 µg/mL (≈ 0.608 µM)
MIC (DAC) [15, 25]: 0.5 µg/mL (≈ 0.608 µM)
MIC (DAC) [15, 26]: 0.5 µg/mL (≈ 0.608 µM)
MIC (DAC) [15, 27]: 0.5 µg/mL (≈ 0.608 µM)
susceptibility determined from the MIC data and the critical concentrations [16]: R
MIC [16]: > 2 µg/mL
susceptibility determined from the MIC data and the critical concentrations [17]: S
MIC [17]: 0.25 µg/mL (≈ 0.304 µM)
